Data: PubChem BioAssay (NCI)
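Results reflect a 48-hour exposure of cells in 96-well plates to compound at five concentrations. GI50: concentration for 50% inhibition of growth. TGI marks complete inhibition of growth.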

Experiments:
Assay in all cases: inhibition of tumour cell growth, NCI panel, 48 h
[1] = tested on: LXFL 529 NSCLC
[2] = tested on: UACC-62 melanoma
[3] = tested on: LOX IMVI melanoma
[4] = tested on: UO-31 renal
[5] = tested on: SF-539 CNS
[6] = tested on: COLO 205 colon
[7] = tested on: RXF 393 renal
[8] = tested on: DLD-1 colon
[9] = tested on: CAKI-1 renal
[10] = tested on: HOP-92 NSCLC
[11] = tested on: MOLT-4 leukemia

SMILES	TGI [1] [µM]	TGI [2] [µM]	TGI [3] [µM]	TGI [4] [µM]	TGI [5] [µM]	TGI [6] [µM]	TGI [7] [µM]	TGI [8] [µM]	TGI [9] [µM]	TGI [10] [µM]	TGI [11] [µM]	GI50 [2] [µM]	GI50 [3] [µM]	GI50 [4] [µM]	GI50 [5] [µM]	GI50 [6] [µM]	GI50 [7] [µM]	GI50 [11] [µM]	GI50 [9] [µM]	GI50 [10] [µM]
CC(C)C(CCOS(=O)(=O)O)CCC(C)[C@H]1[C@@H](O)C(O)C2[C@]3(O)C[C@@H](O)C4(O)C[C@@H](O)CC[C@]4(C)C3CC[C@@]21C (some centres not stated)	> 100	> 100	> 100	> 100	> 100	> 100	> 100	> 100	> 100	> 100	–	–	–	–	–	–	–	–	–	–
CCN(/N=C1\CC2C=CCN(C2)C(=O)Cc2c1[nH]c1ccccc21)S(=O)(=O)c1ccc(C)cc1 (configuration not stated)	–	> 100	> 100	> 100	> 100	> 100	–	> 100	> 100	–	> 100	–	–	–	–	–	–	–	–	–
CC#CC#C/C=C1\C=CC2(OC=CC2O)O1 (configuration not stated)	> 23.3	> 23.3	> 23.3	> 23.3	> 23.3	6.83	> 22	> 23.3	> 23.3	> 23.3	> 23.3	–	–	–	–	–	–	–	–	–
C/C(CCN(C)C)=N\OC(=O)c1ccccc1	> 100	> 100	> 100	> 100	> 100	> 100	> 100	> 100	> 100	> 100	> 100	–	–	–	–	–	–	–	–	–
CCN(CC)CCSc1c(C(C)=O)c(=O)n(-c2ccccc2)c(=S)n1-c1ccccc1	–	27.7	9.04	3.86	6.01	3.92	3.94	–	24	5.8	19.3	–	–	–	–	–	–	–	–	–
Cc1ccc(S(=O)(=O)Nn2c(S)c(C#N)c(-c3ccc(Cl)cc3)c(C#N)c2=O)cc1	–	> 100	> 100	57.5	39.6	> 100	> 100	–	> 100	> 100	> 100	–	–	–	–	–	–	–	–	–
c1cc(CSc2ncnc3nc[nH]c23)ccn1	–	> 100	> 100	> 100	> 100	> 100	> 100	–	> 100	> 100	> 100	–	–	–	–	–	–	–	–	–
C=C1CN2CCc3c([nH]c4ccccc34)C2CC1CC(=O)N(C)C (configuration not stated)	> 309	> 309	> 309	–	> 309	> 309	> 309	> 309	> 309	> 309	> 309	–	–	–	–	–	–	–	–	–
O=c1c2cc([N+](=O)[O-])ccc2n2n1CCCCC2	–	> 100	> 100	> 100	> 100	> 100	> 100	–	> 100	> 100	> 100	–	–	–	–	–	–	–	–	–
O=C(Nc1ccc(Cl)cc1)c1cc(S(=O)(=O)N2CCNNC2=O)c(S)cc1Cl	–	> 100	> 100	> 100	> 100	> 100	53.2	–	> 100	96.1	> 100	–	–	–	–	–	–	–	–	–
CON[N+]([O-])=NC(C)C	–	> 100	> 100	> 100	> 100	> 100	> 100	–	> 100	> 100	> 100	–	–	–	–	–	–	–	–	–
C=C(C)[C@H]1CC(=O)[C@@]2(C)C[C@H]3O[C@]3(C)CC/C=C(\C)CC[C@H]12	–	74.1	> 100	> 100	> 100	44.4	74.1	–	73	> 100	60.9	–	–	–	–	–	–	–	–	–
C=C(C)CCC(O)[C@](C)(O)[C@H]1[C@H](O)C[C@@]2(C)[C@@H]3CCc4c(cc(OC5OC(CO)C(O)C(O)C5O)c(O)c4C)C3(C)C(=O)C[C@]12C (some centres not stated)	–	> 100	> 100	> 100	> 100	> 100	> 100	–	> 100	> 100	> 100	–	–	–	–	–	–	–	–	–
Cn1c(=O)c2c(=O)cc(N)[nH]c2n(C)c1=O	–	> 100	> 100	> 100	> 100	> 100	> 100	–	76.8	> 100	> 100	–	–	–	–	–	–	–	–	–
c1ccc2c(c1)-c1ccccc1C2NC1=NCCO1	–	38.9	48.3	50.7	49.6	41	> 100	–	80.9	36.3	> 100	–	–	–	–	–	–	–	–	–
COc1cc(N(CCCl)CCCl)ccc1/C=N\NC(=O)c1cccnc1	–	29.5	> 100	79.1	> 100	> 100	78.5	–	59.2	45.4	67.4	10.5	32.2	23.8	27.3	13.5	24.1	22.3	9.25	14.1

SMILES	TGI [1] [µM]	TGI [2] [µM]	TGI [3] [µM]	TGI [4] [µM]	TGI [5] [µM]	TGI [6] [µM]	TGI [7] [µM]	TGI [8] [µM]	TGI [9] [µM]	TGI [10] [µM]	TGI [11] [µM]	GI50 [2] [µM]	GI50 [3] [µM]	GI50 [4] [µM]	GI50 [5] [µM]	GI50 [6] [µM]	GI50 [7] [µM]	GI50 [11] [µM]	GI50 [9] [µM]	GI50 [10] [µM]
CCCCCCCCCCCCCCCC(=O)OC1C(O)C(O)C(O)C(O)C12CO2 (configuration not stated)	–	> 100	53.2	> 100	63.9	> 100	> 100	–	29.8	56.1	42.7	–	–	–	–	–	–	–	–	–
C#CCNC(=O)CC[C@@H](C)[C@H]1CC[C@H]2[C@@H]3CC[C@@H]4CC(=O)CC[C@]4(C)[C@H]3CC[C@]12C	–	28.6	39.8	0.424	30.4	32.5	31.7	–	29.2	10.3	43.7	9.02	17.5	0.192	14.1	15.7	14	10.3	12.8	2.54
COCCCNc1c2ccccc2nc2ccccc12	–	6.35	5.67	8.01	8.59	6.73	14.2	–	3.75	12.5	> 100	–	–	–	–	–	–	–	–	–
CC(C)c1c(O[Si](C(C)C)(C(C)C)C(C)C)cc2c(c1O)CC[C@H]1C(C)(C)CCC[C@]21C	–	> 100	> 100	> 100	> 100	> 100	> 100	–	> 100	> 100	> 100	–	–	–	–	–	–	–	–	–
O=C(/C=C/c1cccc(Br)c1)N1CCN(CCOC(c2ccccc2)c2ccccc2)CC1	–	> 100	54.8	65.8	39.1	57.4	> 100	–	> 100	99.1	30.8	–	–	–	–	–	–	–	–	–
CC(N)C(C)c1ccccc1 (configuration not stated)	> 100	> 100	> 100	> 100	> 100	> 100	> 100	> 100	> 100	> 100	> 100	–	–	–	–	–	–	–	–	–
COc1cccc(/C=N/[N-]C(N)=O)c1[O-].[Co+2].[OH3+].c1ccncc1	–	> 100	> 100	> 100	> 100	> 100	> 100	–	> 100	> 100	> 100	–	–	–	–	–	–	–	–	–
COc1ccc2nc3cc(Cl)ccc3c(NCCCCCC(=O)NC(COc3ccc4ccc5cccnc5c4n3)COc3ccc4ccc5cccnc5c4n3)c2c1	–	56.4	> 100	10.7	30.6	32.2	39.3	–	95.5	44.1	12.7	–	–	–	–	–	–	–	–	–
Nc1ncnc2c1ccn2-c1cccc(NC(=O)c2ccc(N3CCOCC3)c(C(F)(F)F)c2)c1	–	5.78	12.7	6.73	15.4	15.1	5.1	–	8.73	5.82	20.1	1.99	3.1	2.8	2.39	3.79	2.05	3.05	2.69	1.6
Cc1cccc(N=N/C(=N\NC(=O)c2cc(Cl)ccc2O)c2ccc(N(CCC#N)CCC#N)cc2C)c1	–	84.6	> 100	82.9	> 100	29.3	97.3	–	> 100	60.7	39.9	–	–	–	–	–	–	–	–	–
CCCC(C(=O)OC)C1N=C(NC#N)N(Cc2ccccc2)C1=O (configuration not stated)	> 100	> 100	> 100	> 100	–	> 100	> 100	> 100	> 100	–	> 100	–	–	–	–	–	–	–	–	–
COc1ccc(-c2cc(=O)c3cc(O)ccc3o2)c(OC)c1OC	> 100	> 100	57.1	–	> 100	> 100	89.4	> 100	> 100	98	–	–	–	–	–	–	–	–	–	–
COc1cc(OC)c(/C=N\Nc2nc3ccccc3c(=O)n2-c2ccccc2)c(OC)c1	–	55	69.6	> 81.4	39.3	> 100	55	–	38.3	64.3	77.1	–	–	–	–	–	–	–	–	–
CCCCCCCCCCCCc1ccsc1-c1ccc(-c2ccc(-c3sccc3CCCCCCCCCCCC)s2)s1	–	> 100	> 100	> 100	> 100	> 100	> 100	–	> 100	> 100	> 100	–	–	–	–	–	–	–	–	–
CC1CCc2c(sc3ncnc(N/N=C/c4ccc(Cl)cc4)c23)C1 (configuration not stated)	–	> 100	70.6	29.7	–	> 100	91.2	> 100	89.5	–	57.3	–	–	–	–	–	–	–	–	–
